Source: US4667032A, “Phenothiazone derivatives and analogs” (Merck Frosst Canada, Inc., priority 1985, dated 1987)

Legend:
[1] = system: Mouse peritoneal macrophages; assay: Mouse Macrophage Assay (leukotriene C4 / PGE2 / 6-keto PGF1α formation, zymosan stimulated); type: cell-based; details: at 0.05 mg/ml, read-out: Macrophage, % at stated concentration
Method: Mouse peritoneal macrophages were treated sequentially with arachidonic acid (labelled with tritium); the compound being evaluated as an inhibitor, and a stimulator (zymosan). Metabolites derived from arachidonic acid PGE2 6-keto PH-F1α and leukotriene C4) were separated from the incubation medium by extraction and chromatography, and then quantitated by determining the amount of radioactivity (cpm) associated with each of them. […] (This protocol is identical to that described in the reference except that the radioactivity herein associated with the LTC4 was determined by counting an aliquot of the final aqueous solution directly rather than chromatographing it first).
Reference: Humes, J. L. et al., J. Biol. Chem. 257, 1591-4, (1982).

[2] = system: tracheal chain of sensitized guinea pigs; assay: Antigen Challenge 'in vitro' Assay (egg albumin contraction of sensitized guinea pig tracheal chain); details: Table 4
[3] = system: tracheal chain of sensitized guinea pigs; assay: as above; details: 10 μg (μg/ml)
Method: Male guinea pigs weighing 300-350 g were sensitized by injecting (I.P.) 0.5 ml of a suspension containing 0.4 mg of egg albumin (Ovalbumin, Grade V, Sigma Chemical Co.) and 4.0 g aluminum hydroxide in 19.6 ml of saline. Two weeks were permitted for sensitization to occur.
Three sensitized guinea pigs were stunned and exsanguinated. The tracheas were removed, freed of adhering tissue and divided longitudinally by cutting through the cartilaginous tissue directly opposite the muscle insertion. Each opened trachea was then transected between every second cartilage. Four of the cut sections were tied together, end to end, in a series with No. 7 silk thread ensuring that the tracheal muscles were all in the same vertical plane. Thus, each chain consisted of tissue from three different animals.
The chain so formed was then suspended under 1 g of tension (by silk ties at each end) in a 20 ml organ bath containing 10 ml of modified* Krebs-Henseleit buffer solution gassed with 95% O2 and 5% CO2 at 37° C. Mepyramine (0.55 μg/ml) and indomethacin (2.67 μg/ml) were added to the buffer to avoid the contribution of histamine receptors and cyclooxygenase products to the contraction. To record responses one end of the tracheal chain was attached to a Gould-Statham UC-2 force displacement transducer which was connected to a Beckman Type R-dynograph.The preparations were allowed to equilibrate for one hour during which time the tissues were automatically washed (10 ml volume displacement) every 6 minutes.
After the equilibration period the tissues were primed with methacholine (3 μg/ml; 1.5×10^-5 M), washed and allowed to recover to baseline. The tissues were treated again with a second dose of methacholine, washed, allowed to return to baseline and washed for an additional hour.
Two chains were used as a control. These were incubated in a concentration of egg albumin sufficient to induce an average contraction of 50-80% of the methacholine response.
Each compound to be tested was added to two other baths (at a final concentration in each bath of 10 μg/ml) 15 minutes prior to challenging the fresh chains with egg albumin.
The response of the challenged tissue was expressed as a percentage of the methacholine maximum. The % inhibition for each compound was then calculated. Compounds which at 10 μg/ml (final conc.) inhibited the egg albumin response by 50% or more were retested at a lower concentration.

asthmatic rats = assay: Asthmatic Rat Assay (duration of dyspnoea after egg albumin aerosol); type: in vivo; details: for ED50: Rattus norvegicus; for % inhibition (Ed50 column): p.o.
Source text: Rats were obtained from an inbred line of asthmatic rats. Both female and male rats from 200 to 300 g were used.
Egg albumin (EA), grade V, crystallized and lyophilized, was obtained from Sigma Chemical Co., St. Louis. Bordetella pertussis vaccine, containing 30×10^9 killed bacteria per ml was obtained from the Institut Armand-Frappier, Laval des Rapides, Quebec. Aluminum hydroxide was obtained from the Regis Chemical Company, Chicago.
The challenge and subsequent respiratory recordings were carried out in a clear plastic box with internal dimensions 10×6×4 inches. The top of the box was removable; in use, it was held firmly in place by four clamps and an airtight seal was maintained by a soft rubber gasket. […] A Fleisch No. 0000 pneumotachograph was inserted into one end of the box and coupled to a Grass volumetric pressure transducer (PT5-A) which was then connected to a Beckman Type T Dynograph through appropriate couplers. While aerosolizing the antigen, the outlets were open and the pneumotachograph was isolated from the chamber. The outlets were closed and the pneumotachograph and the chamber were connected during the recording or the respiratory patterns. For challenge, 2 ml of a 3% solution of antigen in saline was placed into each nebulizer and the aerosol was generated with air from a small Potter diaphragm pump operating at 10 psi and a flow of 8 liters/minute.
Rats were sensitized by injecting (s.c.) 1 ml of a suspension containing 1 mg EA and 200 mg aluminum hydroxide in saline. Simultaneously, they received an injection (i.p.) of 0.5 ml of B. pertussis vaccine. They were used between days 14 and 18 postsensitization. In order to eliminate the serotonin component of the response, rats were pretreated intravenously 5 minutes prior to aerosol challenge with […] methylserzide. Rats were then exposed to an aerosol of 3% EA in saline for exactly 1 minute, then their respiratory profiles were recorded for a further 25-30 minutes. The duration of continuous dyspnoea was measured from the respiratory recordings.
Compounds were generally administered either intraperitoneally 1 hour prior to challenge or orally 11/2 hours prior to challenge. They were either dissolved in dimethylsulfoxide or suspended in 0.1% methocel and 0.5% Tween 80. The volume injected has 2 ml/kg (intraperitoneally) or 10 ml/kg (orally). Prior to oral treatment rats were starved overnight. Their activity was determined in terms of their ability to decrease the duration of symptoms of dyspnoea in comparison with a group of vehicle-treated controls. Usually, a compound was evaluated at a series of doses and an ED50 was determined. This was defined as the dose (mg/kg) which would inhibit the duration of symptoms by 50%.

[4] = system: rat paw, Brewer's yeast hyperalgesia; assay: Brewer's Yeast Hyperalgesia Assay; type: in vivo, Female Sprague-Dawley rats; details: for Vocalization Threshold: mean, n = 10
Method: The standard method* for yeast hyperalgesia was used. Female Sprague-Dawleyrats, […] were fasted overnight. A 5% solution (volume 0.1 ml) of Brewer's yeast was injected into the rat paw. The compound was homogenized in aqueous vehicle and given orally 2 hours after yeast. Vocalization thresholds were recorded 1 hours after drug (3 hours after yeast).
^a mmHg: mean ± S.E.M. n = 10

[5] = system: rat paw, PAF-induced hyperalgesia; assay: PAF-Induced Hyperalgesia Assay; type: in vivo, Female Sprague-Dawley rats; details: for Vocalization Threshold: 3 hr after PAF, Mean ± S.E.M., n = 10
Method: Female Sprague-Dawley rats, 35-40 g were fasted overnight. Platelet activating factor, PAF, (L-lecithin B-acetyl O-alkyl) 1 μg/0.1 ml was given by subplantar injection in the rat paw. The compounds to be evaluated were homogenized in Aqueous Vehicle (0.9% benzyl alcohol, 0.5% Tween 80 and 0.4% methylcellulose) and administered orally in a volume of 0.1 ml, 30 minutes prior to PAF.
Animals were tested 1, 2, 3 and 4 hours after PAF administration. The vocalization threshold, defined as the pressure (mmHg) needed to evoke a squeak response, was recorded for both the injected and contralateral paw. No animal was subjected to pressure greater than 60 mmHg. Hyperalgesia is defined as a decrease in vocalization threshold as compared to a normal paw. Percent inhibition of hyperalgesia was calculated as the proportion of animals with vocalization thresholds greater than 200% of controls.
^a mmHg Mean ± S.E.M., n = 10 Reading taken 3 hr after injection o
PAF, (3.5 hr. after administration of compound).

Cc1cc2nc3ccc(N(C)C)cc3sc-2cc1=N
inhibition at 50 µg/mL [1]: 10%
In Vitro Antigen Challenge Test % Inhibition ([2]; 10 mg (mg/ml)): 24%

4-Chloro-2,7-dimethoxy-3H-phenothiazin-3-one [Example 3]
In Vitro Antigen Challenge Test % Inhibition [3]: 25%

4-Chloro-2,7-dimethyl-3H-phenothiazin-3-one [Example 5]
In Vitro Antigen Challenge Test % Inhibition [3]: 45%

4-Chloro-7-methyl-3H-phenothiazin-3-one [Example 7]
In Vitro Antigen Challenge Test % Inhibition ([2]; 10 mg (mg/ml)): 37%

7-Fluoro-2-methoxy-3H-phenothiazin-3-one [Example 13]
In Vitro Antigen Challenge Test % Inhibition ([2]; 3 mg (mg/ml)): 54%

7-Fluoro-3H-phenothiazin-3-oone [Example 11]
In Vitro Antigen Challenge Test % Inhibition ([2]; 3 mg (mg/ml)): 23%

O=c1ccc2nc3ccccc3sc-2c1Cl [B]
ED50 (asthmatic rats; po): 1.5 mg/kg

O=c1ccc2nc3ccccc3sc-2c1 [C]
ED50 (asthmatic rats; ip): ~5 mg/kg

COc1ccc2nc3cc(OC)c(=O)c(Br)c-3sc2c1 [D]
ED50 (asthmatic rats; po): 1 mg/kg

O=C1C=CC2=Nc3ccccc3S(=O)(=O)C2=C1O [E]
% inhibition (Ed50 column) (asthmatic rats; at 1.5 mg/kg): 37%

O=c1ccc2nc3ccccc3sc-2c1Cl [Example 2, 4-Chloro-3H-phenothiazin-3-one]
% Inhibition ([4]; 0.3 mg/kg p.o.): 30%
Vocalization Threshold ([4]; 0.3 mg/kg p.o.): 17.6 mmHg
% Inhibition ([4]; 1.0 mg/kg p.o.): 30%
Vocalization Threshold ([4]; 1.0 mg/kg p.o.): 19.4 mmHg
% Inhibition ([4]; 3.0 mg/kg p.o.): 60%
Vocalization Threshold ([4]; 3.0 mg/kg p.o.): 30.0 mmHg
% Inhibition ([4]; 10.0 mg/kg p.o.): 70%
Vocalization Threshold ([4]; 10.0 mg/kg p.o.): 28.6 mmHg
% Inhibition ([4]; 30.0 mg/kg p.o.): 80%
Vocalization Threshold ([4]; 30.0 mg/kg p.o.): 32.6 mmHg
% Inhibition ([5]; Experiment 1, 0.01 mg/kg p.o.): 40%
Vocalization Threshold ([5]; Experiment 1, 0.01 mg/kg p.o.): 28.2 ± 5.2 mmHg
% Inhibition ([5]; Experiment 1, 0.03 mg/kg p.o.): 80%
Vocalization Threshold ([5]; Experiment 1, 0.03 mg/kg p.o.): 40.2 ± 5.0 mmHg
% Inhibition ([5]; Experiment 1, 0.1 mg/kg p.o.): 80%
Vocalization Threshold ([5]; Experiment 1, 0.1 mg/kg p.o.): 37.4 ± 3.9 mmHg
% Inhibition ([5]; Experiment 1, 0.3 mg/kg p.o.): 90%
Vocalization Threshold ([5]; Experiment 1, 0.3 mg/kg p.o.): 45.4 ± 3.7 mmHg
% Inhibition ([5]; Experiment 1, 3.0 mg/kg p.o.): 100%
Vocalization Threshold ([5]; Experiment 1, 3.0 mg/kg p.o.): 46.0 ± 3.0 mmHg
% Inhibition ([5]; Experiment 2, 0.001 mg/kg p.o.): 0%
Vocalization Threshold ([5]; Experiment 2, 0.001 mg/kg p.o.): 10.0 ± 1.6 mmHg
% Inhibition ([5]; Experiment 2, 0.003 mg/kg p.o.): 30%
Vocalization Threshold ([5]; Experiment 2, 0.003 mg/kg p.o.): 16.4 ± 2.8 mmHg
% Inhibition ([5]; Experiment 2, 0.01 mg/kg p.o.): 30%
Vocalization Threshold ([5]; Experiment 2, 0.01 mg/kg p.o.): 18.0 ± 2.9 mmHg
% Inhibition ([5]; Experiment 2, 0.1 mg/kg p.o.): 60%
Vocalization Threshold ([5]; Experiment 2, 0.1 mg/kg p.o.): 29.6 ± 4.4 mmHg

O=c1cc2sc3ccccc3nc-2c2ccccc12 [F]
% inhibition (Ed50 column) (asthmatic rats; at 5 mg/kg): 36%

O=c1ccc2nc3ccccc3sc-2c1Cl [drawing 40]
ED50 (asthmatic rats; ip): 0.5 mg/kg
